How the values were obtained:
IgE = conditions: reference 20; cited from earlier work
CXCR2 [1] = biological target: T1, CXCR2 (Mus musculus, UniProt P35343); experiment: RWPE single-challenge model with CXCR2 inhibitor: BALF cell counts; assay type: in vivo; conditions: WT mice
T1 construct: endogenous in cells; host or cells: wild-type mice in vivo (receptor on neutrophils)
T1 sequence (P35343 1-359): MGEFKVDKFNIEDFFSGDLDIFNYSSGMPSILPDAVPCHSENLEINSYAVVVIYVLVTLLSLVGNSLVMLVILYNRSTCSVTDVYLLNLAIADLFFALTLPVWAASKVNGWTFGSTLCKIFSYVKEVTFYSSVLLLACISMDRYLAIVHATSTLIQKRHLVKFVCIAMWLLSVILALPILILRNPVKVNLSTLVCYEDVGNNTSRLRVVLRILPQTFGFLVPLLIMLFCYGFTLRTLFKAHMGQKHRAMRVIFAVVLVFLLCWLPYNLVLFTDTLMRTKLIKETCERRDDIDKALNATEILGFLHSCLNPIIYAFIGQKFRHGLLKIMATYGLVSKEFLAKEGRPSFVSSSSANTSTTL
Method: WT mice and Tlr4 KO mice were intranasally challenged with a single dose of 100 μg/60 μl RWPE reconstituted from lyophilized RWPE (Greer Laboratories, Lenoir, N.C.) and killed after 0.5, 1, 4, 16, or 72 hours. In some experiments, to generate superoxide (7, 15), Tlr4 KO mice were intranasally challenged with 0.32 mM xanthine (X) (Sigma-Aldrich, St. Louis, Mo.) with 50 mU xanthine oxidase (XO) (Sigma-Aldrich) in the presence or absence of RWPE. In some experiments, 1 hour before RWPE challenge, WT mice were treated with intranasal administration of 4 mg/kg body weight chemokine (C-X-C motif) receptor 2 (CXCR2) inhibitor SB225002 (Calbiochem, San Diego, Calif.) and challenged with RWPE and killed as described above.
(§1) Bronchoalveolar lavage fluid (BALF) and histological examinations including PAS staining for mucin were performed as described previously (Sur et al., J Immunol 1996; 157(9):4173-4180). In some experiments, leukotriene B4 (LTB4), CXCL1/2, IL-5, IL-13, TSLP, and IL-33 in BALF were assayed using ELISA kits (R&D Systems, Minneapolis, Minn.)

CXCR2 [2] = biological target: T1, CXCR2; experiment: Ex vivo superoxide generation from BALF cells after RWPE challenge; assay type: in vivo; conditions: WT mice; 4 mg/kg intranasal 1 hour before RWPE; 16 hours after RWPE challenge
Method: WT mice and Tlr4 KO mice were challenged with 100 μg of RWPE or PBS and sacrificed at 0.5 and 16 hours. Ex vivo superoxide generation by BALF cells was measured by a mixture of two probes to optimize sensitivity of detection of superoxide (luminol and Diogenes) (Yamazaki et al., Trop Med Health 2011; 39(2):41-45). In additional experiments, WT mice with intranasal administration of the CXCR2 inhibitor SB225002 (4 mg/kg body weight) 1 hour before RWPE challenge, and ex vivo superoxide generation from cells in BALF was quantified.

CXCR2 [3] = biological target: T1, CXCR2; experiment: RWPE repeated-challenge model with CXCR2 inhibitor; assay type: in vivo; conditions: WT mice
Method: WT mice or Tlr4 KO mice were sensitized by five intranasal doses of RWPE (100 μg/60 μl) on Days 0, 1, 2, 3, and 4. These mice were challenged with intranasal RWPE or PBS on Day 11 and killed on Day 14 (14). In addition, WT mice were sensitized by five intranasal doses of RWPE on Days 0, 1, 2, 3, and 4 with RWPE with or without the intranasal administration of 4 mg/kg body weight SB225002 (16) 1 hour before each intranasal dose of RWPE. The mice were challenged with intranasal RWPE on Day 11 and killed on Day 14 (14). In some experiments, Tlr4 KO mice were sensitized by five intranasal doses of RWPE on Days 0, 1, 2, 3, and 4 in the presence or absence of X+XO and challenged with intranasal RWPE in the presence or absence of X+XO on Day 11 and killed on Day 14 as described above (14). In some experiments, RWPE and negatively selected neutrophils derived from bone marrow of donor mice were repeatedly intranasally instilled in Tlr4 KO mice. The purity of neutrophils was assessed to be 99% by FACS. Tlr4 KO mice were intranasally administered neutrophils (4×10^6 neutrophils per mouse) 8 hours after intranasal instillation of RWPE on Days 0, 1, 2, 3, 4, and 11 and killed on Day 14 as described previously to evaluate allergic inflammation.
as §1
Mucin production was assessed by two investigators who were blinded to the treatment groups using a modification of a method reported (Wild et al., 2000, J Immunol 2000; 164(5):2701-2710) on a subjective scale of 0, 1, 2, 3, and 4 corresponding to none, mild, moderate, marked, or severe mucin deposition, respectively. The data were expressed as mean of score recorded by two blinded investigators.
RWPE-specific IgE was measured using a previously described procedure (Wild et al., J Immunol 2000; 164(5):2701-2710). Briefly 96-well plates were coated with 100 ug/ml of RWPE protein overnight. After washing and blocking, diluted sera from the mice treated as above were applied. The plates were incubated with biotin-conjugated […] (clone R35-72; BD Biosciences, San Jose, Calif.) for 2 hours at room temperature, washed and incubated with avidin-conjugated alkaline phosphatase. After washing, fluorometric values for each well were recorded after addition of AttoPhos substrate solution (Promega, Madison, Wis.).

NF-κB = experiment: RWPE single-challenge model after intranasal NF-κB inhibitor; assay type: in vivo; conditions: WT mice; intranasal 1 hour before RWPE; BAY 11-7082 10 mg/kg, NEMO-binding domain binding peptide 25 per mouse; 16 hours
Method: WT mice were intranasally challenged with a single dose of RWPE or CDE (100 μg/60 μL) and euthanized after 16 hours. In additional experiments, 1 hour before RWPE challenge, WT mice were treated with or without intranasal administration of a nuclear factor κB (NF-κB) inhibitor that selectively irreversibly blocks IκBα phosphorylation with BAY 11-7082 (10 mg/kg body weight; Calbiochem, San Diego, Calif.) (13) or NEMO-binding domain binding peptide (25 per mouse, Calbiochem) (14). These treated mice were challenged with RWPE and euthanized, as described above. Total and differential bronchoalveolar lavage fluid (BALF) cell counts were performed (16). Lungs were perfused and fixed with Zn fixative (BD Biosciences, San Jose, Calif.), and sections were stained with periodic acid-Schiff for mucus staining.

[4] = 4 mg/kg intranasal before each RWPE dose, vs vehicle

Chain of IgE (P01854 1-428 isoform P01854-1): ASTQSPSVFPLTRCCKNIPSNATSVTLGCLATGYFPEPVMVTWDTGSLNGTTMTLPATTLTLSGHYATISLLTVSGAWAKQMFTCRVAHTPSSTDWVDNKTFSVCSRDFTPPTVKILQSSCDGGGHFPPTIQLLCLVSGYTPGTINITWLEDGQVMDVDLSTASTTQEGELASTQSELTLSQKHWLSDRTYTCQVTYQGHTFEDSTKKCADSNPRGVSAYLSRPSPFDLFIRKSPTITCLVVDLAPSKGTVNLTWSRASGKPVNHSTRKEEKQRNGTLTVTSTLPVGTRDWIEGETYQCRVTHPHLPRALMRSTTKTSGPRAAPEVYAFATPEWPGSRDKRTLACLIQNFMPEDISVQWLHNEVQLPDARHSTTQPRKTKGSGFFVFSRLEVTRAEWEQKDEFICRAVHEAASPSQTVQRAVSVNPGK

Omalizumab: marketed drug cited for cat allergen exposure
severity of acute airway obstruction and symptoms caused by exposure to cat allergen (IgE): ameliorates

O=C(Nc1ccc([N+](=O)[O-])cc1O)Nc1ccccc1Br [SB225002]
suppression of neutrophil recruitment into the lungs (BALF neutrophils) (CXCR2 [1]; 4 mg/kg intranasal 1 hour before RWPE challenge, 16 hours after challenge): 66% | number of other cell types in BALF (CXCR2 [1]; inhibitor before RWPE challenge, data not shown): did not alter | RWPE-induced recruitment of superoxide-generating cells (ex vivo superoxide generation of BALF cells) (CXCR2 [2]): blocked | RWPE-induced allergic inflammation (CXCR2 [3]; 4 mg/kg intranasal 1 hour before each RWPE dose, compared with vehicle): attenuated | decrease in BALF eosinophils (CXCR2 [3]; [4]): 50 to 80% | decrease in BALF level of IL-5 (CXCR2 [3]; [4]): 50 to 80% | decrease in BALF level of IL-13 (CXCR2 [3]; [4]): 50 to 80% | decrease in BALF level of IL-33 (CXCR2 [3]; [4]): 50 to 80% | decrease in BALF level of TSLP (CXCR2 [3]; [4]): 50 to 80% | decrease in BALF total inflammatory cells (CXCR2 [3]; [4]): 50 to 80% | decrease in accumulation of mucin in epithelial cells (CXCR2 [3]; [4]): 50 to 80% | decrease in serum RWPE-specific IgE (CXCR2 [3]; [4]): 50 to 80%

Cc1ccc(S(=O)(=O)/C=C/C#N)cc1 [BAY 11-7082]
RWPE challenge-induced neutrophil recruitment into the airways (NF-κB): decreased
